According to patent US20090082314A1, “Targeting Prodrugs for the Treatment of Gastrointestinal Diseases” (The Provost Fellows and Scholars of the College of the, priority 2007, published 2009):

What was measured:
thymus = assay: Systemic side effects: thymus weight to body weight ratio in DSS-induced colitis mice; type: in vivo, BALB/c mice; settings: for T/BW ratio (thymus weight:body weight) versus vehicle-treated mice: 5 mg/Kg oral twice a day, 5% DSS, FIG. 18, one-way ANOVA with Tukey post test
Procedure: The DSS induced colitis mice weighting about 18-20 grams were allowed 5% DSS water ad libitum and 100 μL of prednisolone and prodrug 2 in 1% solution cremophor and ethanol in water suspension (equivalent to 5 mg of prednisolone per Kg or mouse body weight) was orally administrated, twice a day (every twelve hours) to the colitis mice. Six days after the prednisolone and prodrugs treatments, the mice were sacrificed by cervical dislocation. The distal colon segment and the thymus were removed and washed to remove contents of the colon. One centimetre of the distal colon segment and the fresh weight of the thymus were measured to obtain the ratios of distal colon weight and thymus weight to body weight (C/B and T/B respectively). The damage of the colon specimens were scored as describe in materials and methods. The distal segments were frozen by liquid nitrogen kept at −80° C. until assayed for myeloperoxidase activity (MPO). Systemic side effects were study by comparison of the thymus weight and body weight ratio (Hideki Yano 2002) between health mice, untreated mice, prednisolone treated mice and prodrug treated mice, due to the fact that an increase on the concentration of steroid in the bloodstream provokes suppression on the activity of the thymus and the consequent reduction of its weight.

DSS-induced colitis mice = assay: Drug efficacy in DSS-induced colitis mice (body weight loss, DAI, colon length); type: in vivo, BALB/c mice; settings: for body weight loss versus vehicle only controls / severity of disease (DAI score) versus vehicle alone / colon shortening versus vehicle alone: 5 mg/Kg oral twice a day, 5% DSS; for body weight loss versus vehicle only controls: FIG. 15, one-way ANOVA with Tukey post test; for severity of disease (DAI score) versus vehicle alone: FIG. 16, one-way ANOVA with Tukey post test; for colon shortening versus vehicle alone: FIG. 17, one-way ANOVA with Tukey post test
Procedure: BALB/c strain mice were from the Bioresources Unit (Trinity College Dublin). Mice were housed in individually ventilated and filtered cages under positive pressure (Tecniplast, Nothants, UK). Food and water were supplied ad libitum. All animal experiments were performed in compliance with Irish Department of Health and Children regulations and approved by the Trinity College Bioresources ethical review board.
All in vivo experiments were performed with six mice per group. […] Colitis scores were analyzed by Mann-Whitney test. P values <0.05 were considered significant. Results on the DIA, C/B and T/B MPO were expressed as means±S.E.
DSS ([…]; MP Biomedicals, OH) was dissolved in the drinking water of the mice. Fresh DSS solution was provided every second day. BALB/c mice were exposed to 5% DSS for six days. The mice were checked every day for morbidity and weight recorded. Induction of colitis was determined by weight loss, fecal blood and, upon autopsy, length of colon. Blood in feces was detected using a Hemdetect occult blood detection kit (Dipro, Austria).
To quantify induction of colitis, a disease activity index (DAI) was determined based on previous studies of DSS-induced colitis (Cooper 1993). DAI was calculated for each mouse daily based on body weight loss, occult blood and stool consistency/diarrhea. A score of […] was given for each parameter, with a maximum DAI score of 12. Score 0, No weight loss, normal stool, no blood; Score 1, 1-3% weight loss; Score 2, 3-6% weight loss, loose stool, blood visible in stool; Score 3, 6-9% weight loss; Score 4, […]. Loose stool was defined as the formation of a stool that readily becomes paste upon handling. Diarrhea was defined as no stool formation. Gross bleeding was defined as fresh blood on fur around the anus with extensive blood in the stool,
At autopsy the length of the colon was measured and a 1 cm section of colon was fixed in 10% formaldehyde-saline. H&E-stained sections were grading based on a scoring system modified from a previous study (Siegmund 2001). Histology scoring was performed in a blinded fashion. A combined score of inflammatory cell infiltration and tissue damage was determined as follows: Cell infiltration: Score 0, Occasional inflammatory cells in the LP; 1, Increased infiltrate in the LP predominantly at the base of crypts; 2, Confluence of inflammatory infiltrate extending into the mucosa; 3, Trans-mural extension of infiltrate. Tissue Damage Score 0, No mucosal damage; 1, Partial (up to 50%) loss of crypts in large areas; 2, Partial to total 50-100% loss of crypts in large areas, epithelium intact; 3, Total loss of crypts in large areas and epithelium lost.
The DSS induced colitis mice weighting about 18-20 grams were allowed 5% DSS water ad libitum and 100 μL of prednisolone and prodrug 2 in 1% solution cremophor and ethanol in water suspension (equivalent to 5 mg of prednisolone per Kg or mouse body weight) was orally administrated, twice a day (every twelve hours) to the colitis mice. Six days after the prednisolone and prodrugs treatments, the mice were sacrificed by cervical dislocation. The distal colon segment and the thymus were removed and washed to remove contents of the colon.
One centimetre of the distal colon segment and the fresh weight of the thymus were measured to obtain the ratios of distal colon weight and thymus weight to body weight (C/B and T/B respectively). The damage of the colon specimens were scored as describe in materials and methods. The distal segments were frozen by liquid nitrogen kept at −80° C. until assayed for myeloperoxidase activity (MPO).
Anti-inflammatory effects were studied by comparison of the distal colon length between healthy mice, untreated mice, prednisolone treated mice and prodrug treated mice. IBD causes shortering of the colon. […]

[1] = after 24 h at pH 7 (45° C.); cited from earlier work
[2] = rat intestinal perfusate; cited from earlier work
[3] = neutrality, 39° C.; cited from earlier work
[4] = Intramolecular lactamization (cyclization) kinetics of amino prodrugs in aqueous solution, HPLC; type: physicochemical; settings: 37° C., pH not given, read-out: calculated half-life of lactamization (T1/2=0.693/kobs) (converted)
Procedure: Release of steroid in vivo from the prodrugs hinges upon the cyclization of the amino steroid product of azo-reductase activity. The cyclization rates of the amino derivatives of cortisone A and B were monitored in aqueous solution at various pH values and at 37° C. by measuring remaining compound by HPLC along with the evolution of cortisone.
The first order rate constant for disappearance can be obtained from a plot of the natural log of remaining ester versus time. The half-life can be calculated (T1/2=0.693/kobs).

[5] = 5 mg/Kg, Student's t-test, original analysis

Compound | T/BW ratio (thymus weight:body weight) versus vehicle-treated mice (thymus) | body weight loss versus vehicle only controls (DSS-induced colitis mice) | severity of disease (DAI score) versus vehicle alone (DSS-induced colitis mice) | colon shortening versus vehicle alone (DSS-induced colitis mice) | half-life [4] [h] | further results
CC12C=CC(=O)C=C1CCC1C2C(O)CC2(C)C1CCC2(O)C(=O)COC(=O)CCc1ccccc1/N=N/c1ccc(O)c(C(=O)O)c1 (stereo not drawn) [Mutual Prodrug 2, 5-(2-{2[2-(11,17-dihydroxy-10,13-dimethyl-10,13-dimethyl-3-oxo-6,7,8,9,10,11,12,13,14,15,16,17-dodecahydro-3H-cyclopenta[a]phenanthrene-17-yl)-2-oxo-ethoxycarbonyl]ethyl}-phenylazo}-2-hydroxy-benzoic acid] | not statistically different | weight loss was decreased | significantly reduced | significantly less shortening |  | colon length (DSS-induced colitis mice; [5]): significantly longer colon than the PRED
C[C@]12C=CC(=O)C=C1CC[C@@H]1[C@@H]2[C@@H](O)C[C@@]2(C)[C@H]1CC[C@]2(O)C(=O)CO [Prednisolone] | significant reduction in T/BW ratio | weight loss was decreased | significantly reduced | significantly less shortening |  | thymus:BW ratio versus Untreated mice (thymus; [5]): significant reduction in thymus:BW ratio
C[C@]12CCC(=O)C=C1CC[C@@H]1[C@@H]2[C@@H](O)C[C@@]2(C)[C@H]1CC[C@]2(O)C(=O)COC(=O)CCC(=O)O [hydrocortisone-21-succinate] |  |  |  |  |  | disappearance [1]: less than 5%; first-order rate constant for hydrolysis [2]: 0.003 min⁻¹
COC(=O)CCc1ccccc1N [methyl 3-(2-aminophenyl)propionate] |  |  |  |  |  | apparent first-order rate constant of spontaneous cyclization [3]: 0.0002 s⁻¹
CC12CCC(=O)C=C1CCC1C2C(O)CC2(C)C1CCC2(O)C(=O)COC(=O)Cc1ccccc1N (stereo not drawn) [prodrug A] |  |  |  |  | 2.2 | 
CC12CCC(=O)C=C1CCC1C2C(O)CC2(C)C1CCC2(O)C(=O)COC(=O)CCc1ccccc1N (stereo not drawn) [prodrug B] |  |  |  |  | 1.4 | 
